Test results published in patent US8217013B2, “Polyene diester antibiotics” (priority 2007, dated 2012).

Tests used:
Experiment in all cases: Test of antibacterial activity in vitro (bacteria-inhibition zone)
Assay type in all cases: cell-based
[1] = system: Saccharomyces cerevisiae
Source text: (§1) Test of Antibacterial Activity In Vitro
(§2) Experiment drugs: the polyene diester compounds prepared by examples 1-12
(§3) Control drugs: amphotericin B (standard product) • mycostatin (standard product) • natamycin (standard product)
2.2 Preparation of Saccharomyces cerevisiae suspension: PHARMACOPOEIA OF THE PEOPLES REPUBLIC OF CHINA, second part, 2005 edition, appendix p 80, p 83.
(§4) Taking appropriate amount of the above mentioned amphotericin B, mycostatin, natamycin and the polyene diester compounds prepared by examples 1-8 and 10-12, dissolving in a little dimethyl sulfoxide respectively, using pH7 phosphate buffer to dilute into solution which is equivalent to contain amphotericin B, mycostatin, natamycin 280 Units per milliliter, taking 1 ml and using pH7 phosphate buffer to quantitatively dilute into solution which is equivalent to contain amphotericin B 1.4 μg/ml and 2.8 μg/ml, and is equivalent to contain 5.6 μg/ml of mycostatin and natamycin.
(§5) In addition, preparing the solution according to the same method, adding 40% defibered sheep serum, using pH7 phosphate buffer to quantitatively dilute into unit solution which is equivalent to contain amphotericin B 1.4 μg/ml and 2.8 μg/ml, and is equivalent to contain 5.6 μg/ml of mycostatin and natamycin. Testing according to PHARMACOPOEIA OF THE PEOPLES REPUBLIC OF CHINA, second part, 2005 edition, appendix XIA The Antibiotics Microorganism Test.
(§6) Medium: Improved Martin Agar Medium, PHARMACOPOEIA OF THE PEOPLES REPUBLIC OF CHINA, second part, 2005 edition, appendix p 84.
(§7) Test method: Double-plate counting method; […] bacteria bed 15 ml to replace the double layers, culture temperature: 37° C., time: 24 h; strain concentration: 1%
(§8) Medium: Modified Martin Broth Medium

[2] = system: Candida mycoderma
Source text: as §1, §2, §3
2.3 Preparation of Candida mycoderrna suspension: the method is as same as preparation of Saccharomyces cerevisiae suspension
as §4, §5, §6, §7, §8

[3] = system: Candida albicans
Source text: as §1, §2, §3
2.1 Preparation of Candida albicans suspension: PHARMACOPOEIA OF THE PEOPLES REPUBLIC OF CHINA, second part, 2005 edition, appendix p 81-84.
as §4, §5, §6
Test method: Double-plate counting method; […] bacteria bed 15 ml to replace the double layers, culture temperature: 37° C., time: 24 h; strain concentration: 1% […]

[4] = 5.6 μg/ml after conversion, no serum
[5] = 5.6 μg/ml after conversion, serum added (40% defibered sheep serum)
[6] = 2.8 μg/ml after conversion, no serum
[7] = 2.8 μg/ml after conversion, serum added (40% defibered sheep serum)

| Molecule | diameter of the bacteria-inhibition zone, Saccharomyces cerevisiae 0 h [1, 4] | diameter of the bacteria-inhibition zone, Saccharomyces cerevisiae 0 h [1, 5] | diameter of the bacteria-inhibition zone, Saccharomyces cerevisiae 6 h [1, 4] | diameter of the bacteria-inhibition zone, Saccharomyces cerevisiae 6 h [1, 5] | diameter of the bacteria-inhibition zone, Saccharomyces cerevisiae 24 h [1, 4] | diameter of the bacteria-inhibition zone, Saccharomyces cerevisiae 48 h [1, 4] | diameter of the bacteria-inhibition zone, Candida mycoderma 0 h [2, 5] | diameter of the bacteria-inhibition zone, Candida albicans 0 h [3, 4] | diameter of the bacteria-inhibition zone, Candida albicans 0 h [3, 5] | diameter of the bacteria-inhibition zone, Candida albicans 6 h [3, 4] | diameter of the bacteria-inhibition zone, Candida albicans 6 h [3, 5] | diameter of the bacteria-inhibition zone, Candida albicans 24 h [3, 4] | diameter of the bacteria-inhibition zone, Candida albicans 24 h [3, 5] | diameter of the bacteria-inhibition zone, Candida albicans 48 h [3, 4] | diameter of the bacteria-inhibition zone, Candida albicans 48 h [3, 5] | diameter of the bacteria-inhibition zone, Saccharomyces cerevisiae 0 h [1, 6] | diameter of the bacteria-inhibition zone, Saccharomyces cerevisiae 0 h [1, 7] | diameter of the bacteria-inhibition zone, Saccharomyces cerevisiae 6 h [1, 6] | diameter of the bacteria-inhibition zone, Saccharomyces cerevisiae 24 h [1, 6] | diameter of the bacteria-inhibition zone, Saccharomyces cerevisiae 48 h [1, 6] | also measured |
| --- | --- | --- | --- | --- | --- | --- | --- | --- | --- | --- | --- | --- | --- | --- | --- | --- | --- | --- | --- | --- | --- |
| mycostatin methyl pivalate | ++ (9-12 mm: ++) | + (7-9 mm: +) | ++ (9-12 mm: ++) | ++ (9-12 mm: ++) | ++ (9-12 mm: ++) | ++ (9-12 mm: ++) | + (7-9 mm: +) | + (7-9 mm: +) | + (7-9 mm: +) | + (7-9 mm: +) | + (7-9 mm: +) | + (7-9 mm: +) | + (7-9 mm: +) | + (7-9 mm: +) | + (7-9 mm: +) | – | – | – | – | – | diameter of the bacteria-inhibition zone, Candida mycoderma 6 h [2, 5]: ++ (9-12 mm: ++) |
| amphotericin B-1, 3-2H-3-oxo-1-isobenzofuran ester | – | – | – | – | – | – | – | – | – | – | – | – | – | – | – | ++ (9-12 mm: ++) | ++ (9-12 mm: ++) | ++ (9-12 mm: ++) | ++ (9-12 mm: ++) | ++ (9-12 mm: ++) | diameter of the bacteria-inhibition zone, Candida mycoderma 0 h [2, 6]: ++ (9-12 mm: ++); diameter of the bacteria-inhibition zone, Candida mycoderma 0 h [2, 7]: ++ (9-12 mm: ++); diameter of the bacteria-inhibition zone, Candida mycoderma 6 h [2, 6]: ++ (9-12 mm: ++); diameter of the bacteria-inhibition zone, Candida mycoderma 24 h [2, 6]: ++ (9-12 mm: ++); diameter of the bacteria-inhibition zone, Candida mycoderma 48 h [2, 6]: ++ (9-12 mm: ++); diameter of the bacteria-inhibition zone, Candida albicans 0 h [3, 6]: + (7-9 mm: +); diameter of the bacteria-inhibition zone, Candida albicans 0 h [3, 7]: + (7-9 mm: +); diameter of the bacteria-inhibition zone, Candida albicans 6 h [3, 6]: + (7-9 mm: +); diameter of the bacteria-inhibition zone, Candida albicans 6 h [3, 7]: ++ (9-12 mm: ++); diameter of the bacteria-inhibition zone, Candida albicans 24 h [3, 6]: + (7-9 mm: +); diameter of the bacteria-inhibition zone, Candida albicans 48 h [3, 6]: + (7-9 mm: +) |
| Cc1oc(=O)oc1COC(=O)C1C(O)CC2(O)CC(O)CC(O)C(O)CCC(O)CC(O)CC(=O)OC(C)C(C)C(O)C(C)C=CC=CC=CC=CC=CC=CC=CC(OC3OC(C)C(O)C(N)C3O)CC1O2 (centres unmarked) [amphotericin B-5-methyl-1,3-dioxol-2-one-4-methyl ester] | – | – | – | – | – | – | – | – | – | – | – | – | – | – | – | ++ (9-12 mm: ++) | ++ (9-12 mm: ++) | ++ (9-12 mm: ++) | ++ (9-12 mm: ++) | ++ (9-12 mm: ++) | diameter of the bacteria-inhibition zone, Candida mycoderma 0 h [2, 6]: ++ (9-12 mm: ++); diameter of the bacteria-inhibition zone, Candida mycoderma 0 h [2, 7]: ++ (9-12 mm: ++); diameter of the bacteria-inhibition zone, Candida mycoderma 6 h [2, 6]: ++ (9-12 mm: ++); diameter of the bacteria-inhibition zone, Candida mycoderma 24 h [2, 6]: ++ (9-12 mm: ++); diameter of the bacteria-inhibition zone, Candida mycoderma 48 h [2, 6]: ++ (9-12 mm: ++); diameter of the bacteria-inhibition zone, Candida albicans 0 h [3, 6]: ++ (9-12 mm: ++); diameter of the bacteria-inhibition zone, Candida albicans 0 h [3, 7]: ++ (9-12 mm: ++); diameter of the bacteria-inhibition zone, Candida albicans 6 h [3, 6]: ++ (9-12 mm: ++); diameter of the bacteria-inhibition zone, Candida albicans 24 h [3, 6]: ++ (9-12 mm: ++); diameter of the bacteria-inhibition zone, Candida albicans 48 h [3, 6]: ++ (9-12 mm: ++) |
| CCOC(=O)OC(C)OC(=O)[C@H]1[C@@H]2C[C@@H](O[C@@H]3OC(C)[C@@H](O)[C@@H](N)[C@H]3O)/C=C/C=C/C=C/C=C/C[C@@H](C)OC(=O)/C=C/[C@H]3O[C@@H]3C[C@H](O)C[C@](O)(C[C@@H]1O)O2 (some centres unmarked) [natamycin ethoxycarbonyloxyethyl ester] | + (7-9 mm: +) | + (7-9 mm: +) | + (7-9 mm: +) | ++ (9-12 mm: ++) | + (7-9 mm: +) | + (7-9 mm: +) | + (7-9 mm: +) | + (7-9 mm: +) | + (7-9 mm: +) | + (7-9 mm: +) | ++ (9-12 mm: ++) | + (7-9 mm: +) | ++ (9-12 mm: ++) | + (7-9 mm: +) | ++ (9-12 mm: ++) | – | – | – | – | – | diameter of the bacteria-inhibition zone, Candida mycoderma 0 h [2, 4]: + (7-9 mm: +); diameter of the bacteria-inhibition zone, Candida mycoderma 6 h [2, 4]: + (7-9 mm: +); diameter of the bacteria-inhibition zone, Candida mycoderma 6 h [2, 5]: ++ (9-12 mm: ++); diameter of the bacteria-inhibition zone, Candida mycoderma 24 h [2, 4]: + (7-9 mm: +); diameter of the bacteria-inhibition zone, Candida mycoderma 48 h [2, 4]: + (7-9 mm: +) |
| Natamycin methyl pivalate | + (7-9 mm: +) | + (7-9 mm: +) | + (7-9 mm: +) | ++ (9-12 mm: ++) | + (7-9 mm: +) | + (7-9 mm: +) | ++ (9-12 mm: ++) | + (7-9 mm: +) | + (7-9 mm: +) | + (7-9 mm: +) | ++ (9-12 mm: ++) | + (7-9 mm: +) | ++ (9-12 mm: ++) | + (7-9 mm: +) | ++ (9-12 mm: ++) | – | – | – | – | – | diameter of the bacteria-inhibition zone, Candida mycoderma 0 h [2, 4]: ++ (9-12 mm: ++); diameter of the bacteria-inhibition zone, Candida mycoderma 6 h [2, 4]: ++ (9-12 mm: ++); diameter of the bacteria-inhibition zone, Candida mycoderma 24 h [2, 4]: ++ (9-12 mm: ++); diameter of the bacteria-inhibition zone, Candida mycoderma 48 h [2, 4]: ++ (9-12 mm: ++) |
| CC(C)OC(=O)OC(C)OC(=O)C1C(O)CC2(O)CC(O)CC(O)C(O)CCC(O)CC(O)CC(=O)OC(C)C(C)C(O)C(C)C=CC=CC=CC=CC=CC=CC=CC(OC3OC(C)C(O)C(N)C3O)CC1O2 (centres unmarked) [amphotericin B isopropoxycarbonyloxyethyl ester] | – | – | – | – | – | – | – | – | – | – | – | – | – | – | – | + (7-9 mm: +) | ++ (9-12 mm: ++) | + (7-9 mm: +) | + (7-9 mm: +) | + (7-9 mm: +) | diameter of the bacteria-inhibition zone, Candida mycoderma 0 h [2, 6]: ++ (9-12 mm: ++); diameter of the bacteria-inhibition zone, Candida mycoderma 0 h [2, 7]: ++ (9-12 mm: ++); diameter of the bacteria-inhibition zone, Candida mycoderma 6 h [2, 6]: ++ (9-12 mm: ++); diameter of the bacteria-inhibition zone, Candida mycoderma 24 h [2, 6]: ++ (9-12 mm: ++); diameter of the bacteria-inhibition zone, Candida mycoderma 48 h [2, 6]: ++ (9-12 mm: ++); diameter of the bacteria-inhibition zone, Candida albicans 0 h [3, 6]: ++ (9-12 mm: ++); diameter of the bacteria-inhibition zone, Candida albicans 0 h [3, 7]: ++ (9-12 mm: ++); diameter of the bacteria-inhibition zone, Candida albicans 6 h [3, 6]: ++ (9-12 mm: ++); diameter of the bacteria-inhibition zone, Candida albicans 24 h [3, 6]: ++ (9-12 mm: ++); diameter of the bacteria-inhibition zone, Candida albicans 48 h [3, 6]: ++ (9-12 mm: ++) |
